# According to publication PMC10791743, “Selective CK1α degraders exert antiproliferative activity against a broad range of human cancer cell lines” (Nature Communications, 2024):
# Values joined by “and” are separate entries in the source; they are usually repeats but may differ in a detail not shown here. Identical values can stand only once.
# Columns and labels:
# [1] = Pharmacokinetics in female CD1 mice; type: in vivo, mouse; conditions: female CD1 mice
# Experimental: Three mice were housed in each cage. […] Temperature and humidity were recorded by an auto-controlled data logger system. All the animals were provided a laboratory rodent diet (Altromin, Germany). Reverse osmosis water treated with ultraviolet light was provided ad libitum. Total 27 mice (n = 9/group) were divided into three groups as Group 1, Group 2, and Group 3 with a sparse sampling design (3 mice/time points). […] The formulation vehicle for IV was 5% v/v NMP, 5% v/v Solutol HS-15 and 90% v/v Normal saline, and for PO & IP was 10%v/v NMP, 10%v/v Solutol HS-15. 50%v/v PEG-400 and 30%v/v HPβCD (20%w/v) in saline. […] Immediately after blood collection, plasma was harvested by centrifugation at 12,300×g, 10 min at 4 °C and samples were stored at −70 ± 10 °C until bioanalysis. Concentrations of SJ3149 in mouse plasma samples were determined by fit-for-purpose LC–MS/MS method. Non-Compartmental-Analysis tool of Phoenix WinNonlin® (Version 8.3) was used to assess the pharmacokinetic parameters. Peak plasma concentration (Cmax) and time for the peak plasma concentration (Tmax) were the observed values. The area under the concentration–time curve (AUClast) was calculated by the linear trapezoidal rule. The terminal elimination rate constant, ke was determined by regression analysis of the linear terminal portion of the log plasma concentration-time curve. Clearance was estimated as Dose/AUCinf and Vss as CL*MRT.
# MOLM-13 cells = assay: MOLM-13 cell viability assay (CTG, 72 h); type: cell-based, human; set-up: key to Cell viability in MOLM-13 cells / cell viability, dose-response replicate values: % viability = 100 − % activity, normalized to controls; conditions: for cell viability, dose-response replicate values: MOLM-13 WT, listed as CC-220
# Experimental: The primary screen was performed in 384-well format using the CellTiter Glo (CTG) luminescent cell viability assay (Promega) as previously described. […] After overnight incubation at 37 °C in a humidified 5% CO2 incubator, cells were treated with compounds in dose–response format using a Pintool on a Biomek FX^P Laboratory Automation Workstation (Beckman Coulter). […] Luminescence signal was measured using an EnVision plate reader (PerkinElmer). […]
# number per well and incubated overnight at 37 °C in a humidified 5 % CO2 incubator. Compounds were transferred to the assay plate from a dose-response plate using a Labcyte Echo 650 Acoustic Liquid Handler (Beckman Coulter , USA). […]
# using Promega’s CellTiter-Glo reagent according to the manufacturer’s recommendation.
# Luminescence was measured on the Envision plate reader (PerkinElmer, USA). Raw luminescence relative light unit (RLU) values for each compound at each concentration were normalized to obtain % activity using the following equation (1): 100 × [(mean(negctrl) – compound)/(mean (negctrl) – mean (posctrl))]. The % activity was converted to % viability using the following equation (2):
# (100 – % activity), and then pooled from replicate experiments prior to fitting. Here, negctrl and posctrl refer to the negative (DMSO) and positive controls (staurosporine) on each plate. Dose-response curves were fit to the Hill equation using the GraphPad Prism (version 10). […]
# [2] = single intraperitoneal 50 mg/kg, 0.5 hr
# [3] = single intraperitoneal 50 mg/kg, 1 hr
# [4] = single intraperitoneal 50 mg/kg, 2 hr
# [5] = single intraperitoneal 50 mg/kg, 6 hr
# [6] = single intraperitoneal 50 mg/kg, 8 hr
# [7] = single intraperitoneal 50 mg/kg, 24 hr
smiles,measurement,setting,value
O=C1CCC(N2Cc3cc(Nc4noc5ccccc45)ccc3C2=O)C(=O)N1 (stereo not shown) [SJ001043149],"Plasma Concentration, Mean",[1]; [2],4253.68 ng/mL
same,"Plasma Concentration, individual animal",[1]; [2],2474.57 ng/mL and 2615.2 ng/mL and 7671.27 ng/mL
same,"Plasma Concentration, Mean",[1]; [3],3788.89 ng/mL
same,"Plasma Concentration, individual animal",[1]; [3],3408.76 ng/mL and 3558.82 ng/mL and 4399.09 ng/mL
same,"Plasma Concentration, Mean",[1]; [4],3436.75 ng/mL
same,"Plasma Concentration, individual animal",[1]; [4],3844.39 ng/mL and 3042 ng/mL and 3423.87 ng/mL
same,"Plasma Concentration, individual animal","[1]; single intraperitoneal 50 mg/kg, 4 hr",37.79e ng/mL and 613.87 ng/mL and 1233.77 ng/mL
same,"Plasma Concentration, Mean","[1]; single intraperitoneal 50 mg/kg, 4 hr, average of two values",22172 ng·h/mL
same,"Plasma Concentration, Mean",[1]; [5],336.83 ng/mL
same,"Plasma Concentration, individual animal",[1]; [5],224.92 ng/mL and 422.53 ng/mL and 363.03 ng/mL
same,"Plasma Concentration, Mean",[1]; [6],626.18 ng/mL
same,"Plasma Concentration, individual animal",[1]; [6],584.82 ng/mL and 376.02 ng/mL and 917.7 ng/mL
same,"Plasma Concentration, individual animal","[1]; single intraperitoneal 50 mg/kg, 12 hr",1.02e ng/mL and 119 ng/mL and 188.95 ng/mL
same,"Plasma Concentration, Mean","[1]; single intraperitoneal 50 mg/kg, 12 hr, average of two values",3695.5 ng·h/mL
same,"Plasma Concentration, Mean",[1]; [7],14.86 ng/mL
same,"Plasma Concentration, individual animal",[1]; [7],16.86 ng/mL and 11.98 ng/mL and 15.73 ng/mL
same,"Plasma Concentration, Mean","[1]; single intravenous 3 mg/kg, 0.08 hr",3540.18 ng/mL
same,"Plasma Concentration, individual animal","[1]; single intravenous 3 mg/kg, 0.08 hr, 3 mg/kg",3522.19 ng/mL and 3164.19 ng/mL and 3934.15 ng/mL
same,"Plasma Concentration, Mean","[1]; single intravenous 3 mg/kg, 0.5 hr",548.51 ng/mL
same,"Plasma Concentration, individual animal","[1]; single intravenous 3 mg/kg, 0.5 hr, 3 mg/kg",590.56 ng/mL and 721 ng/mL and 333.96 ng/mL
same,"Plasma Concentration, individual animal","[1]; single intravenous 3 mg/kg, 1 hr, 3 mg/kg",89.11 ng/mL and 82.85 ng/mL and 465.12e ng/mL
same,"Plasma Concentration, Mean","[1]; single intravenous 3 mg/kg, 1 hr, average of two values",2064 ng·h/mL
same,"Plasma Concentration, Mean","[1]; single intravenous 3 mg/kg, 2 hr",21.37 ng/mL
same,"Plasma Concentration, individual animal","[1]; single intravenous 3 mg/kg, 2 hr, 3 mg/kg",26.85 ng/mL and 22.73 ng/mL and 14.53 ng/mL
same,"Plasma Concentration, Mean","[1]; single intravenous 3 mg/kg, 4 hr",5.15 ng/mL
same,"Plasma Concentration, individual animal","[1]; single intravenous 3 mg/kg, 4 hr, 3 mg/kg",2.92 ng/mL and 9.75 ng/mL and 2.78 ng/mL
same,"Plasma Concentration, individual animal","[1]; single intravenous 3 mg/kg, 8 hr, LLOQ 1.00 ng/mL, 3 mg/kg",BLQ and 2.43e ng/mL
same,"Plasma Concentration, individual animal","[1]; single intravenous 3 mg/kg, 12 hr, LLOQ 1.00 ng/mL",BLQ
same,"Plasma Concentration, individual animal","[1]; single intravenous 3 mg/kg, 24 hr, LLOQ 1.00 ng/mL",BLQ
same,"Plasma Concentration, Mean","[1]; single oral 50 mg/kg, 0.5 hr",1802.13 ng/mL
same,"Plasma Concentration, individual animal","[1]; single oral 50 mg/kg, 0.5 hr, 50 mg/kg",1597.22 ng/mL and 2494.42 ng/mL and 1314.74 ng/mL
same,"Plasma Concentration, Mean","[1]; single oral 50 mg/kg, 1 hr",635.82 ng/mL
same,"Plasma Concentration, individual animal","[1]; single oral 50 mg/kg, 1 hr, 50 mg/kg",300.99 ng/mL and 799.29 ng/mL and 807.18 ng/mL
same,"Plasma Concentration, individual animal","[1]; single oral 50 mg/kg, 2 hr, 50 mg/kg",207.45 ng/mL and 268.31 ng/mL and 77.73e ng/mL
same,"Plasma Concentration, Mean","[1]; single oral 50 mg/kg, 2 hr, average of two values",5709.1 ng·h/mL
same,"Plasma Concentration, Mean","[1]; single oral 50 mg/kg, 4 hr",35.43 ng/mL
same,"Plasma Concentration, individual animal","[1]; single oral 50 mg/kg, 4 hr, 50 mg/kg",57.72 ng/mL and 27.57 ng/mL and 21 ng/mL
same,"Plasma Concentration, individual animal","[1]; single oral 50 mg/kg, 6 hr, 50 mg/kg",5.43e ng/mL and 17.18 ng/mL and 23.01 ng/mL
same,"Plasma Concentration, Mean","[1]; single oral 50 mg/kg, 6 hr, average of two values",482.4 ng·h/mL
same,"Plasma Concentration, individual animal","[1]; single oral 50 mg/kg, 8 hr, 50 mg/kg",6.11 ng/mL and 16.97 ng/mL and 1.39e ng/mL
same,"Plasma Concentration, Mean","[1]; single oral 50 mg/kg, 8 hr, average of two values",277 ng·h/mL
same,"Plasma Concentration, Mean","[1]; single oral 50 mg/kg, 12 hr",3.98 ng/mL
same,"Plasma Concentration, individual animal","[1]; single oral 50 mg/kg, 12 hr, 50 mg/kg",3.44 ng/mL and 4.89 ng/mL and 3.6 ng/mL
same,"Plasma Concentration, individual animal","[1]; single oral 50 mg/kg, 24 hr, LLOQ 1.00 ng/mL, 50 mg/kg",2.03e ng/mL and BLQ
"O=C1CC[C@H](N2Cc3c(OCc4ccc(CN5CCOCC5)cc4)cccc3C2=O)C(=O)N1 [iberdomide, reference compound]",Effect on MOLM-13 cell viability (cytotoxicity),MOLM-13 cells; CTG 72 h,very little effect
same,"cell viability, dose-response replicate values",MOLM-13 cells; Concentration 0.00053416,104.205 and 101.273 and 105.756
same,"cell viability, dose-response replicate values",MOLM-13 cells; Concentration 0.00160248,116.013 and 103.828 and 106.347
same,"cell viability, dose-response replicate values",MOLM-13 cells; Concentration 0.00480744,99.9393 and 109.095 and 93.7856
same,"cell viability, dose-response replicate values",MOLM-13 cells; Concentration 0.0144223,103.939 and 96.4969 and 110.266
same,"cell viability, dose-response replicate values",MOLM-13 cells; Concentration 0.0432669,111.735 and 98.8709 and 109.735
same,"cell viability, dose-response replicate values",MOLM-13 cells; Concentration 0.129801,112.307 and 99.7991 and 100.005
same,"cell viability, dose-response replicate values",MOLM-13 cells; Concentration 0.389402,95.4783 and 95.9453 and 89.9456
same,"cell viability, dose-response replicate values",MOLM-13 cells; Concentration 1.16821,93.0089 and 93.9287 and 92.6782
same,"cell viability, dose-response replicate values",MOLM-13 cells; Concentration 3.50462,93.5137 and 89.0055 and 86.6893
same,"cell viability, dose-response replicate values",MOLM-13 cells; Concentration 10.5139,95.8132 and 82.1796 and 91.7179
